Reference: patent US10857105B2, “Compounds and compositions for intracellular delivery of therapeutic agents” (ModernaTX, Inc., priority 2017, dated 2020)

What was measured:
CD-1 mice = assay: Luciferase expression after intravenous delivery of luciferase mRNA LNPs (bioluminescent imaging); format: in vivo; conditions: intravenous 0.5 mg/kg mRNA dose
Description: Whole body and ex vivo organ bioluminescent imaging of mice: CD-1 mice were injected 15 minutes prior to the imaging timepoint intraperitoneally (IP) with 200 μL Xenolight D-luciferin K+ salt, diluted in PBS just prior to use to a concentration of 15 mg/mL. Ex vivo imaging of organs was completed, within 25 minutes of luciferin administration. All images were quantified by region of interest for total flux.
[…] […] (See Semple, S.C. et al., Nature Biotech. 2010. 28, 172-176, Jayaraman, M., et al. Angew. Chem. Int. Ed. 2012, 51, 8529-8533, the entire contents of each of which are incorporated by reference herein in their entireties). To evaluate the efficiency of the new amino lipids, LNPs using the novel compounds were tested in vivo in mice using luciferase mRNA as a reporter. An MC3 LNP was included as a control in each experiment, enabling the comparison of LNPs from experiment to experiment. Measured luciferase activity also enabled the determination of protein bio-distribution.

[1] = Chemical stability of lipids in ethanol at room temperature and 37° C. (lipid purity); format: physicochemical
Description: Ester linkages were previously reported to trigger metabolism by esterases in vivo. (See Fukami, T. et al. Drug Metab. Pharmacokinet. 2012, 27, 466-477, the content of which is incorporated by reference herein in its entirety). […] (See Maier M. A., Mol. Ther. 2013, 21, 1570-1578, the content of which is incorporated herein in its entirety) First, the chemical stability of the lipids was evaluated by measuring ethanol stability at room temperature and 37° C. (Table 39). […] LNPs formed with compound 138 were larger, with a surface pKa>7. […] Removal of one ester function (compound 136) afforded LNPs with improved physiochemical characteristics and lower LNP surface pKa.

[2] = Residual lipid levels in rat liver and spleen (UPLC-MS); format: in vivo; conditions: rats, 2 mpk, 48 h; assuming 300 g rat and 15 g liver
Description: At 48 h liver tissue was harvested for lipid quantification. To pre-weighed tissues, Milli-Q water was added (900 μL water per 100 mg tissue). Tissues were homogenized using an Omni probe homogenizer until uniform. 50 μL of samples and matrix calibration standards were aliquoted into a 96-well plate. 50 μL of blank matrix for matrix blanks and control blanks were aliquoted. 400 μL IS spiking solution were manually added to all samples except matrix blanks. 400 μL of 50:50 ACN:IPA were manually added to matrix-blanks. The plate was covered and the samples vortexed and centrifuged for 5 minutes at >3000 rpm. 200 μL of the samples were transferred into a clean 96-well plate for analysis. Samples were analyzed on a Waters Acquity UPLC using a Higgins Analytical Clipeus C8 column ([…], 30×2.1 mm) and a gradient of either 70-95% or 60-95% (Mobile Phase A: 5 mM ammonium formate in 50:50:1 H2O:MeOH:formic acid; Mobile Phase B: 5 mM ammonium formate in 100:1 MeOH:formic acid) over 1.3 min at […] (column temperature 55° C.). Detection was based on electrospray ionization (ESI) in positive mode using a Sciex API5500 Mass Spectrometer.
(§1) The expression of hEPO in rats intravenously administered a nanoparticle composition at a dose of 0.2 mpk or 2.0 mpk was measured at 6 hours. Table 16 summarize the ratio of hEPO expression levels using various nanoparticle compositions as compared to the hEPO expression level using MC3 formulation and the lipid levels in the liver measured 48 hours after administration, as described above. Tables 17 and 18 summarize the lipid levels in the liver and spleen measured 48 hours after administration of Compounds 28, 33, 53, and 54. Liver and spleen levels represent the average values calculated for 3 rats in each group. As is shown in Tables 17 and 18, less than 10% of Compounds 28, 33, 53, and 54 remained in the liver after 48 hours, while greater than 60% of MC3 remained.
(§2) Table 19A summarizes the hEPO expression, IP-10 induction, liver and spleen levels, and alanine aminotransferase (ALT) and aspartate aminotransferase (AST) measured upon intravenous administration of formulations including Compounds 48, 49, and 50 to rat at 0.2 and 2 mpk and hEPO mRNA. hEPO concentrations were measured 6 hours after administration, while cytokine induction and liver and spleen levels were measured 48 hours after administration. hEPO and IP-10 concentrations are presented in pg/ml, while liver levels are provided in ng/g. ALT and AST levels are presented in international units.
(§3) The expression of hEPO and lipid levels in the liver and spleen in rats intravenously administered a nanoparticle composition at a dose of 0.2 mpk was measured at various time points. Compounds 18 and 25 were selected for comparison with MC3. Lipids were formulated according to the standard MC3 formulation described above. Rats were administered intravenously a single 0.2 mpk dose and expression monitored at 0.25, 0.5, 1, 2, 4, 8, 24, and 48 hours after administration.

modified luciferase = assay: Luciferase expression in liver, lung, spleen and femur 6 hours after intravenous administration to mice; format: in vivo; conditions: 6 hours after intravenous 0.5 mpk, mice
How it was run: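 Mice (n=3) got a single 0.5 mpk IV dose of each nanoparticle composition, with MC3 and PBS controls alongside. Organ luminescence flux was read 6 h post-dose.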

hEPO mRNA = assay: hEPO expression after intravenous administration to rats; format: in vivo, rat; conditions: rats, 6 hours; for Lipid/MC3 hEPO conc. ratio, 0.2 mpk: intravenous 0.2 mpk; for Lipid/MC3 hEPO conc. ratio, 2 mpk: intravenous 2 mpk
Description: The expression of hEPO and cytokine induction in rats intravenously administered a nanoparticle composition at a dose of 2.0 mpk was measured at 6 h.
as §1, §2
The expression of hEPO induced by intravenous administration to rats of nanoparticle compositions at various doses was measured at 2, 4, 6, 8, 24, and 48 hour time points. FIGS. 3-6 respectively summarize the hEPO expression measured upon intravenous administration of formulations including Compounds 26, 18, 25, and MC3 to rat at various doses. The lipid levels of Compound 26 in the liver after 48 hours were about 19%.
as §3

[3] = Particle size and polydispersity index of nanoparticle compositions (Zetasizer Nano ZS); format: physicochemical
How it was run: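 Formulations of ionizable lipid, DSPC, cholesterol and PEG-DMG (50:10:38.5:1.5 mol %) carrying Luc or hEPO mRNA with all uridines as N1-methyl pseudouridine. Dynamic light scattering in 1×PBS gave particle size and polydispersity; zeta potential read in 15 mM PBS.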

IL-6, IP-10 = assay: Cytokine induction (IL-6, IP-10) in mice 6 hours after intravenous administration; format: in vivo; parameters: unit not given here; conditions: intravenous 0.5 mpk
How it was run: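 IL-6 and IP-10 concentrations determined 6 hours after a single intravenous 0.5 mpk dose of lipid nanoparticle formulation in mice, with MC3 and PBS as comparators.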

[4] = Encapsulation efficiency of RNA in nanoparticle compositions (RIBOGREEN assay); format: physicochemical; conditions: Table 1A; lipid:DSPC:cholesterol:PEG-DMG 50:10:38.5:1.5 mol %
How it was run: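 Lipid nanoparticles (ionisable lipid:DSPC:cholesterol:PEG-DMG 50:10:38.5:1.5 mol %) carrying N1-methylpseudouridine luciferase or hEPO mRNA diluted to about 5 μg/mL in TE, pH 7.5, with or without 2% Triton X-100, 15 min at 37° C. RiboGreen fluorescence (ex ~480, em ~520 nm) blank-subtracted; free RNA = intact/disrupted signal.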

[5] = Table 1A, lipid:DSPC:cholesterol:PEG-DMG 50:10:38.5:1.5 mol %

| SMILES | localization of protein expression (whole body imaging) (CD-1 mice) | luciferase activity/expression compared to MC3 LNP control (words) (CD-1 mice) | Lipid Purity, t = 96 h, 25° C. [1] | Lipid Purity, t = 96 h, 37° C. [1] | Lipid Purity, t = 0 [1] | % Lipid Remaining in liver, 48 h, 2 mpk [2] | Total Flux, Liver (modified luciferase) | Total Flux, Lung (modified luciferase) | Total Flux, Spleen (modified luciferase) | Lipid/MC3 hEPO conc. ratio, 0.2 mpk (hEPO mRNA) | Lipid/MC3 hEPO conc. ratio, 2 mpk (hEPO mRNA) | Size [3, 5] | luciferase activity/expression compared to MC3 LNP control (words) (CD-1 mice; 0.5 mg/kg) | luciferase activity/expression compared to MC3 LNP control (words) (CD-1 mice; listed as compound 14, 0.5 mg/kg) | Cytokine induction, IL-6 (IL-6, IP-10) | Cytokine induction, IP-10 (IL-6, IP-10) | EE [4] | Total Flux, Femur (modified luciferase) | Size ([3]; Table 1D, compositions for subcutaneous administration, # formulated with hEPO mRNA) |
| --- | --- | --- | --- | --- | --- | --- | --- | --- | --- | --- | --- | --- | --- | --- | --- | --- | --- | --- | --- |
| CCCCCCCCCOC(=O)CCCCCCCN(CCCCCCCC(=O)OC(CCCCCCCC)CCCCCCCC)CCCNC(=O)C(C)(C)COC [compound 281, Heptadecan-9-yl 8-((3-(3-methoxy-2,2-dimethylpropanamido)propyl)(8-(nonyloxy)-8-oxooctyl)amino)octanoate] | majority of protein expression was localized in the liver | two-fold lower | 95.15% | 96.47% | 95.17% |  |  |  |  |  |  |  |  |  |  |  |  |  |  |
| CCCCCCCCC(CCC)OC(=O)CCCCCCCN(CCO)CCCCCCCC(=O)OC(CCCCCCCC)CCCCCCCC (stereo not drawn) [Compound 50, dodecan-4-yl 8-((8-(heptadecan-9-yloxy)-8-oxooctyl)(2-hydroxyethyl)amino)octanoate] |  |  |  |  |  | 15.9% | 6.30E+09 | 2.81E+07 | 1.14E+08 | 3.41 | 3.03 | 68.4 nm |  |  |  |  |  |  |  |
| CCCCCCCCCOC(=O)CCCCCCCN(CCCCCCCC(=O)OC(CCCCCCCC)CCCCCCCC)CCN(C)C [Compound 14, Heptadecan-9-yl 8-((2-(dimethylamino)ethyl)(8-(nonyloxy)-8-oxooctyl)amino)octanoate] |  |  | 92.07% | 91.90% | 92.08% |  | 1.91E+08 | 4.74E+06 | 1.92E+08 |  |  |  | complete loss of delivery efficiency | low levels of Luciferase expression | 75.29 | 621.49 | 95.24% | 4.91E+06 |  |
| CCCCCCCCCOC(=O)CCCCCCCN(CCO)CCCCCCCC(=O)OCCCCCCCCC [compound 138, Dinonyl 8,8′-((2-hydroxyethyl)azanediyl)dioctanoate] |  |  | 98.64% | 97.82% | 97.59% |  | 3.66E+06 | 9.47E+04 | 4.04E+06 |  |  |  |  |  | 23.38 | 172.56 | 91.8% | 1.58E+05 |  |
| CCCCC/C=C\C/C=C\CCCCCCCCN(CCO)CCCCCCCC(=O)OCCCCCCCCC [Compound 136, Nonyl 8-((2-hydroxyethyl)((9Z,12Z)-octadeca-9,12-dien-1-yl)amino)octanoate] |  |  | 93.17% | 93.86% | 91.81% |  | 1.34E+08 | 8.91E+05 | 2.77E+07 |  |  |  |  |  | 28.69 | 887.91 | 90.9% | 6.60E+05 |  |
| CCCCCCCCC(CC)OC(=O)CCCCCCCN(CCO)CCCCCCCC(=O)OC(CCCCCCCC)CCCCCCCC (stereo not drawn) [Compound 49, heptadecan-9-yl 8-((2-hydroxyethyl)(8-oxo-8-(undecan-3-yloxy)octyl)amino)octanoate] |  |  |  |  |  | 12.6% | 5.68E+09 | 2.52E+07 | 1.87E+08 | 4.13 | 3.28 | 88 nm |  |  |  |  |  |  | 74.0 nm |
| CCCCCCCCC(CCCCCCCC)OC(=O)CCCCCCCN(CCO)CCCCCCCC(=O)OC(CCCCCCCC)CCCCCCCC [compound 29, Di(heptadecan-9-yl) 8,8′-((2-hydroxyethyl)azanediyl)dioctanoate] |  | lower luciferase activity | 97.67% | 98.10% | 97.017% |  | 5.20E+08 | 9.83E+05 | 5.99E+06 |  |  |  |  |  | 69.54 | 1362.81 | 96.99% | 9.56E+05 |  |
